Measurements taken from patent US20050009132A1, “Culture medium for detecting and/or discriminating enterococcus and method therefor” (priority 2001, published 2005).

System: Gram-positive bacteria
Experiment: Addition of Crystal Violet to culture medium, growth inhibition of Gram-positive bacteria
Format: cell-based
Conditions: concentration as low as

CN(C)c1ccc(C(=C2C=CC(=[N+](C)C)C=C2)c2ccc(N(C)C)cc2)cc1 [Crystal Violet]
Crystal Violet concentration at which inhibition of the growth of a large quantity of Gram-positive bacteria is observed: 0.1 mg/L
